Values of other authors as cited in publication PMC7992120 (Nature chemical biology, 2018).

Assays:
[1] = test system: human bradykinin 2 receptor (B2R); settings: for affinity for B2R (in words): agonist
[2] = test system: B2R, "these residues" replaced by alanine or positively charged amino acids; settings: replacement by alanine or positively charged amino acids
[3] = test system: human bradykinin 1 receptor (B1R); settings: for affinity for B1R of peptides lacking N-terminal lysine (in words): no reference at the sentence (Fig. 1)
dog B1R = settings: D^7.29 replaced by Asn

## kallidin [KD]
[1]
  affinity for B2R, Figure 1 legend (in words): high-affinity ligands for B2R
  affinity for B2R (in words): high-affinity agonists

## bradykinin (RPPGFSPFR; Bradykinin; UniProt P01042 381-389, looked up) [BK]
[2]
  BK binding of mutant (in words): substantially impairs BK binding in B2R
[1]
  affinity for B2R, Figure 1 legend (in words): high-affinity ligands for B2R
  affinity for B2R (in words): high-affinity agonists
[3]; human B1R
  affinity for B1R of peptides lacking N-terminal lysine (in words): rather low affinity to the B1R

## desArg^9-bradykinin [DABK]
Dog B1R
  selectivity between DAKD and DABK (in words): no significant selectivity between DAKD and DABK
[1]
  affinity for B2R of desArg peptides (in words): only weak binding affinity to the B2R
[3]; human B1R
  affinity for B1R, Figure 1 legend (in words): not DABK, binds with high affinity to B1R
  affinity for B1R of peptides lacking N-terminal lysine (in words): rather low affinity to the B1R

## KRPPGFSPL [DALK]
[3]; B1R antagonist
  B1R antagonism / affinity (in words): high-affinity antagonist for B1R
